Source: the RepoRT retention time repository (doi:10.1021/acs.analchem.1c00972)

test: RP, Waters ACQUITY UPLC BEH C18, 100 × 1 mm, 1.7 µm, 50 °C, 0.3 mL/min, estimated dead time 0.17 min; A: water + 10 mM ammonium bicarbonate; B: 10% water + 90% methanol + 10 mM ammonium bicarbonate; gradient (min/%B) 0/0 15/100 21/100 22/0 30/0; details: stereoisomer not certain

SMILES	LC retention time
CN(C)C(=O)Nc1ccc(Cl)cc1 [Monuron]	11.3 min
CCOP(=S)(OCC)SCn1nnc2ccccc2c1=O [Ethyl azinphos]	15 min
CNC(=O)Oc1cc(C)cc(C(C)C)c1 [Promecarb]	15 min
Cc1ccccc1N [o-Toluidine]	9.21 min
Oc1ccc(Cl)cc1Cl [2,4-Dichlorophenol]	12.3 min
CCC(C)(NC(=O)c1cc(Cl)c(C)c(Cl)c1)C(=O)CCl (configuration not stated) [Zoxamide]	16 min
O=c1[nH]sc2ccccc12 [1,2-Benzisothiazolinone]	6.97 min
NC1=NCCN1Cc1ccc(Cl)nc1 [Imidacloprid-guanidine]	6.72 min
Cc1nnc(-c2ccccc2)c(=O)n1N [Metamitron]	9 min
CC(=O)OCC12CCC(C)=CC1OC1C(O)C(OC(C)=O)C2(C)C12CO2 (configuration not stated) [Diacetoxyscirpenol]	12.1 min
CCC(C)(c1ccc(O)cc1)c1ccc(O)cc1 [Bisphenol B]	14.3 min
CC1(C)CON(Cc2ccccc2Cl)C1=O [Clomazone]	13.9 min
Cc1cc(C)nc(Nc2ccccc2)n1 [Pyrimethanil]	14.2 min
CCNc1nc(NC(C)C)nc(OC)n1 [Atraton]	12.4 min
CCCC(C)(COC(N)=O)COC(=O)NC(C)C (configuration not stated) [Carisoprodol]	13.3 min
COCC(C)N(C(=O)CCl)c1c(C)csc1C (configuration not stated) [Dimethenamid]	14.4 min
CCC(C)c1ccccc1OC(=O)NC (configuration not stated) [Fenobucarb]	15 min
Cc1cccc(C)c1N(Cn1cccn1)C(=O)CCl [Metazachlor]	13.3 min
CN1C(=O)CN=C(c2ccccc2)c2cc(Cl)ccc21 [Diazepam]	14.6 min

Now from value to molecule:

LC retention time	SMILES
16.8 min	CCCCCCCCCCCC[N+](C)(C)[O-] [N,N-Dimethyldodecylamine N-oxide]
2.02 min	CC(Cn1cnc2c(N)ncnc21)OCP(=O)(O)O (configuration not stated) [Tenofovir]
13.5 min	O=S(=O)(O)c1ccccc1C=Cc1ccc(-c2ccc(C=Cc3ccccc3S(=O)(=O)O)cc2)cc1 [Fluorescent brightener 351]
7.78 min	Cn1c(=O)c2c(ncn2C)n(C)c1=O [Caffeine]
14.8 min	CN(C)CCCC1(c2ccc(F)cc2)OCc2cc(C#N)ccc21 (configuration not stated) [Citalopram]
7.94 min	CC(=O)Nc1c(C)n(C)n(-c2ccccc2)c1=O [N-Acetyl-4-aminoantipyrine]
9.95 min	CC(C)Nc1nc(N)nc(Cl)n1 [Desethylatrazine]
11.2 min	Cc1ccc(NC=O)c(C)c1 [2,4-Dimethylformanilide]
5.99 min	Nc1[nH]c(=O)ncc1F [5-Fluorocytosine]
17 min	C=C(c1ccc(C(=O)O)cc1)c1cc2c(cc1C)C(C)(C)CCC2(C)C [Bexarotene]
15.4 min	CNCC(c1ccc(O)cc1)C1(O)CCCCC1 (racemic) [rac N,O-Didesmethyl Venlafaxine]
9.52 min	CCOc1nc2cccc(C(=O)O)c2n1Cc1ccc(-c2ccccc2-c2noc(=O)[nH]2)cc1 [Azilsartan]
16.3 min	CCON=C(OC(=O)c1ccccc1)c1c(OC)ccc(Cl)c1OC [Benzoximate]
14.2 min	CC12CCC3c4ccc(O)cc4CCC3C1CCC2=O (configuration not stated) [Estrone]
11.7 min	NC(=O)N1c2ccccc2CC(=O)c2ccccc21 [Oxcarbazepine]
8.34 min	CCN1CCN(C(=O)NC(C(=O)NC2C(=O)N3C(C(=O)O)=C(CSc4nnnn4C)CSC23)c2ccc(O)cc2)C(=O)C1=O (configuration not stated) [Cefoperazone]
6.11 min	Cn1c(=O)c2[nH]cnc2n(C)c1=O [Theophyllin]
13.4 min	CSc1nc(N)nc(NC(C)(C)C)n1 [Irgarol-Metabolit 1 (Terbutryn-desethyl)]
